# Results from patent publication US8779140B2, “Crystal of fused pyridine compound salt” (Astellas Pharma Inc., priority 2010, dated 2014).
# How the values were obtained:
# [1] = Stability test of crystals (storage at 70° C., 70° C./75% RH, Xe lamp; HPLC related substances and powder X-ray diffraction); conditions: for Physical stability / change in the crystal forms: stored at 70° C. or 70° C.·75% RH for 2 weeks
# Experimental: A sample was stored with light-shielding under the condition of 70° C., 70° C.·75% RH for 2 weeks. The total amount of the related substance after storage was measured using HPLC, and the change in crystal forms was measured by means of powder X-ray diffraction.
# The test drug was stored under the following conditions.
# Initial (Stored under the cooling conditions): About 5 mg was collected with a 10 mL centrifuge tube and stored in a refrigerator.
# 70° C. (stored at 70° C.): About 5 mg was collected with a 10 mL centrifuge tube and stored in a mini-jet oven at 70° C. for 14 days.
# 70° C.·75% RH (stored at 70° C. and 75% relative humidity): About 5 mg was collected with a 10 mL centrifuge tube, a sample was put into a desiccator at 75% relative humidity in the open state, and the desiccator was stored in a mini jet oven at 70° C. for 14 days.
# Xe lamp: This product was placed in a plastic Petri dish and stored for 40 hours under a Xe lamp (25° C. RH 60%, total irradiance 1,200,000 lx·h, total near-ultraviolet radiation energy 200 W·h/m^2 or more).
# Initial, a product stored at 70° C. and a product stored at 70° C. and 75% RH were dissolved in a mixed solution (1:1) of MeCN for LC/water to exactly 10 mL, which was used as a sample solution.
# HPLC; Detector: ultraviolet absorptiometer (wavelength measurement; 254 nm), column: Inertsil ODS-3 (particle diameter 3 μm, 2.1 mm×100 mm), column temperature: 40° C. (column thermostat vessel was used), mobile phase: Liquid A—1000 mL of water was added to perchlorate buffer at pH 2.5 {sodium perchlorate (NaClO4.H2O) (1.40 g) for dissolution, and adjusted to a pH of 2.5 with diluted perchloric acid (dilution of 100 mL of a commercially available 60% perchloric acid solution with 1900 mL of water)}. Liquid B—MeCN for LC, flow rate: 0.2 mL/min, Injection amount: 1 μL, (gradient setting: Liquid B 10% at 0.0 minutes to Liquid B 90% at 35 minutes).
# Powder X-ray diffraction; tube: Cu, tube current: 300 mA, tube voltage, 50 kV, sampling width: 0.02°, scan speed: 4°/min, wavelength: 1.54056 angstroms, measured diffraction angle range (2θ): 2.5 to 40°
# [2] = Solubility measured with a 80% aqueous EtOH solution; assay type: physicochemical; conditions: organic solvent or mixture
# Experimental: The solubility was measured with a 80% aqueous EtOH solution. Further, the crystals of 0.5 L-tartrate and lactate were prepared as crystallized from a crystallization solvent described in Tables below.
# JAK3 = biological target: T1, JAK3 (Homo sapiens, UniProt P52333); conditions: as described in Patent Document 1; cited from earlier work
# T1 sequence (P52333 1-1124): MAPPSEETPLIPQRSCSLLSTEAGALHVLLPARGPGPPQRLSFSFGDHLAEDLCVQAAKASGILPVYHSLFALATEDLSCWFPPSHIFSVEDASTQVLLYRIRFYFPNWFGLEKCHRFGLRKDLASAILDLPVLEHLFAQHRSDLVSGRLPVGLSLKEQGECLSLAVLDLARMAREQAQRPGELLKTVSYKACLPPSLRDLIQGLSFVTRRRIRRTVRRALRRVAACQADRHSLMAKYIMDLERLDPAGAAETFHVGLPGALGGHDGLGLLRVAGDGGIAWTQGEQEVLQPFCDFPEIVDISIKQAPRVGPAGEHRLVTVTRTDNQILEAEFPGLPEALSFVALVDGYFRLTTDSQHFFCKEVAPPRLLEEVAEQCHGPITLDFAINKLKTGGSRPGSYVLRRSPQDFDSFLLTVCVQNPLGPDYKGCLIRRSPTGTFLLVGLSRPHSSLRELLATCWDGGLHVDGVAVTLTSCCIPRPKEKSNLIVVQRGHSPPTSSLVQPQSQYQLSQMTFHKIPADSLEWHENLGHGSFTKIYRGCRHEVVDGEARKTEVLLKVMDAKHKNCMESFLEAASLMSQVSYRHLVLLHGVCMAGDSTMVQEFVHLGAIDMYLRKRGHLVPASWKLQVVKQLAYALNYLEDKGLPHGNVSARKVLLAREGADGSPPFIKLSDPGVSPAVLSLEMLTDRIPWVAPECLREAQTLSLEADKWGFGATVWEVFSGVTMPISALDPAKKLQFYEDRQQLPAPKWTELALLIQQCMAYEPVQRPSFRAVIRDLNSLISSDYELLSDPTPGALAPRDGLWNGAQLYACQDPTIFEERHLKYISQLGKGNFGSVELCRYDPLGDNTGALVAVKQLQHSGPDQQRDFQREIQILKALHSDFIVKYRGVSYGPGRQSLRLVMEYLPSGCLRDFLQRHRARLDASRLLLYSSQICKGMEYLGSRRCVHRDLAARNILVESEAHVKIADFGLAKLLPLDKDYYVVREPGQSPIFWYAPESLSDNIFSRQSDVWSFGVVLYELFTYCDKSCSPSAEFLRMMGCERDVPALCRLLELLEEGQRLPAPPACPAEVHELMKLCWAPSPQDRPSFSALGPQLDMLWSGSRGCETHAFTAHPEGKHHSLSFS
# [3] = Solubility test in 84% aqueous EtOH solution; assay type: physicochemical
# Experimental: After stirring, the supernatant was filtered and the concentration of the filtrate was quantified by means of HPLC.
# HPLC; Columns to be charged: Unison UK Phenyl (manufactured by Imtakt Corporation), particle diameter 3 μm, 4.6 mm×250 mm
# Mobile phase: perchlorate buffer at pH 2.5 (0.01 mol/L)^(note)/mixed solution with MeCN for LC (4:1),
# Flow rate of mobile phase: about 1.0 mL/min. Detector: ultraviolet absorptiometer (wavelength for measurement: 235 nm), column temperature: 50° C. (column thermostat vessel was used)
# [4] = stirred at room temperature in a 84% EtOH solution
# Excerpt: The Form A61 crystals were stirred at room temperature and transition of crystal forms was attempted in a 84% EtOH solution.
# [5] = 70° C. 75% RH, 2 weeks, Table 1, hydrobromide
# [6] = 70° C., 2 weeks, Table 1, hydrobromide
# [7] = Initial (stored in a refrigerator), Table 1, hydrobromide
# [8] = Xe lump 40H, Table 1, hydrobromide
# [9] = 70° C. 75% RH, 2 weeks, Table 1
# [10] = Initial (stored in a refrigerator), Table 1
smiles,measurement,setting,value
"NC(=O)c1cnc2[nH]ccc2c1N[C@@H]1[C@@H]2CC3C[C@H]1C[C@@](O)(C3)C2 [Form A01, 4-{[(1R,2s,3S,5s,7s)-5-hydroxy-2-adamantyl]amino}-1H-pyrrolo[2,3-b]pyridine-5-carboxamide monohydrate, reference compound]",Change of crystal on storage,[1]; no humidity at 70° C.,transition to an anhydride in a free form
same,Solubility,[2],< 10 mg/mL
"NC(=O)c1cnc2[nH]ccc2c1N[C@@H]1[C@@H]2CC3C[C@H]1C[C@@](O)(C3)C2 [Ex. 121, 4-{[(1R,2s,3S,5s,7s)-5-hydroxy-2-adamantyl]amino}-1H-pyrrolo[2,3-b]pyridine-5-carboxamide]",Stability with respect to temperature and humidity,[1]; crystallized free form,not stable with respect to temperature and humidity even when crystallized
same,JAK3 inhibitory activity,JAK3,excellent activity
"Br.NC(=O)c1cnc2[nH]ccc2c1N[C@@H]1[C@@H]2C[C@@H]3C[C@H]1C[C@@](O)(C3)C2 [Form B45, 4-{[(1R,2s,3S,5s,7s)-5-hydroxy-2-adamantyl]amino}-1H-pyrrolo[2,3-b]pyridine-5-carboxamide hydrobromide]",LC: total amount of the related substances,[1]; [5],0.11%
same,LC: total amount of the related substances,[1]; [6],0.11%
same,LC: total amount of the related substances,[1]; [7],0.11%
same,LC: total amount of the related substances,[1]; [8],0.11%
same,Physical stability / change in the crystal forms,[1],physically stable
same,Solubility rank among crystal forms,[3],lowest solubility crystal form
same,Solubility,"[3]; 25° C., hydrobromide",23.7 mg/mL
same,Solubility,"[3]; 35° C., hydrobromide",29.4 mg/mL
same,Solubility,"[3]; 50° C., hydrobromide",36.7 mg/mL
"NC(=O)c1cnc2[nH]ccc2c1N[C@@H]1[C@@H]2C[C@@H]3C[C@H]1C[C@@](O)(C3)C2.O=C(O)CCC(=O)O [Form A24, 4-{[(1R,2s,3S,5s,7s)-5-hydroxy-2-adamantyl]amino}-1H-pyrrolo[2,3-b]pyridine-5-carboxamide succinate]",LC: total amount of the related substances,"[1]; 70° C. 2 W, Table 3",0.19%
same,LC: total amount of the related substances,"[1]; 70° C. 75% RH 2 W, Table 3",0.25%
same,LC: total amount of the related substances,"[1]; Initial, Table 3",0.25%
same,LC: total amount of the related substances,"[1]; Xe lump 40H, Table 3",0.19%
"Br.NC(=O)c1cnc2[nH]ccc2c1N[C@@H]1[C@@H]2C[C@@H]3C[C@H]1C[C@@](O)(C3)C2 [Form A36, 4-{[(1R,2s,3S,5s,7s)-5-hydroxy-2-adamantyl]amino}-1H-pyrrolo[2,3-b]pyridine-5-carboxamide monohydrobromide]",LC: total amount of the related substances,"[1]; 70° C. 75% RH, 2 weeks, Table 1, monohydrobromide",0.28%
same,LC: total amount of the related substances,"[1]; 70° C., 2 weeks, Table 1, monohydrobromide",0.34%
same,LC: total amount of the related substances,"[1]; Initial (stored in a refrigerator), Table 1, monohydrobromide",0.43%
same,LC: total amount of the related substances,"[1]; Xe lump 40H, Table 1, monohydrobromide",0.76%
"NC(=O)c1cnc2[nH]ccc2c1N[C@@H]1[C@@H]2CC3C[C@H]1C[C@@](O)(C3)C2 [anhydride in a free form, reference compound]",Change of crystal on storage,[1]; with humidity at 70° C.,changed to hydrate
"Cl.NC(=O)c1cnc2[nH]ccc2c1N[C@@H]1[C@@H]2C[C@@H]3C[C@H]1C[C@@](O)(C3)C2 [Form A33, 4-{[(1R,2s,3S,5s,7s)-5-hydroxy-2-adamantyl]amino}-1H-pyrrolo[2,3-b]pyridine-5-carboxamide monohydrochloride]",LC: total amount of the related substances,"[1]; 70° C. 2 W, Table 3",0.48%
same,LC: total amount of the related substances,"[1]; 70° C. 75% RH 2 W, Table 3",0.48%
same,LC: total amount of the related substances,"[1]; Initial, Table 3",0.49%
same,LC: total amount of the related substances,"[1]; Xe lump 40H, Table 3",0.79%
"Br.NC(=O)c1cnc2[nH]ccc2c1N[C@@H]1[C@@H]2C[C@@H]3C[C@H]1C[C@@](O)(C3)C2.O.O [Form B21, 4-{[(1R,2s,3S,5s,7s)-5-hydroxy-2-adamantyl]amino}-1H-pyrrolo[2,3-b]pyridine-5-carboxamide hydrobromide dihydrate]",LC: total amount of the related substances,[1]; [9],0.05%
same,LC: total amount of the related substances,"[1]; 70° C., 2 weeks, Table 1",0.05%
same,LC: total amount of the related substances,[1]; [10],0.00%
same,LC: total amount of the related substances,"[1]; Xe lump 40H, Table 1",0.05%
same,Solubility,[3]; 25° C.,36.1 mg/mL
same,Solubility,[3]; 35° C.,46.3 mg/mL
same,Solubility,[3]; 50° C.,58.2 mg/mL
"Br.NC(=O)c1cnc2[nH]ccc2c1N[C@@H]1[C@@H]2C[C@@H]3C[C@H]1C[C@@](O)(C3)C2.O [Form B11, 4-{[(1R,2s,3S,5s,7s)-5-hydroxy-2-adamantyl]amino}-1H-pyrrolo[2,3-b]pyridine-5-carboxamide hydrobromide monohydrate]",LC: total amount of the related substances,[1]; [9],0.43%
same,LC: total amount of the related substances,"[1]; 70° C., 2 weeks, Table 1",0.43%
same,LC: total amount of the related substances,[1]; [10],0.43%
same,LC: total amount of the related substances,"[1]; Xe lump 40H, Table 1",0.48%
same,Solubility,[3]; 25° C.,35.0 mg/mL
same,Solubility,[3]; 35° C.,44.1 mg/mL
same,Solubility,[3]; 50° C.,60.1 mg/mL
"Cl.NC(=O)c1cnc2[nH]ccc2c1N[C@@H]1[C@@H]2C[C@@H]3C[C@H]1C[C@@](O)(C3)C2.O [Form A34, 4-{[(1R,2s,3S,5s,7s)-5-hydroxy-2-adamantyl]amino}-1H-pyrrolo[2,3-b]pyridine-5-carboxamide monohydrochloride hydrate]",LC: total amount of the related substances,"[1]; 70° C. 2 W, Table 3",0.10%
same,LC: total amount of the related substances,"[1]; 70° C. 75% RH 2 W, Table 3",0.10%
same,LC: total amount of the related substances,"[1]; Initial, Table 3",0.10%
same,LC: total amount of the related substances,"[1]; Xe lump 40H, Table 3",0.30%
"Br.NC(=O)c1cnc2[nH]ccc2c1N[C@@H]1[C@@H]2C[C@@H]3C[C@H]1C[C@@](O)(C3)C2 [Form A61, 4-{[(1R,2s,3S,5s,7s)-5-hydroxy-2-adamantyl]amino}-1H-pyrrolo[2,3-b]pyridine-5-carboxamide hydrobromide]",LC: total amount of the related substances,[1]; [5],0.43%
same,LC: total amount of the related substances,[1]; [6],0.44%
same,LC: total amount of the related substances,[1]; [7],0.44%
same,LC: total amount of the related substances,[1]; [8],0.77%
same,Physical stability / change in the crystal forms,[1],physically stable
same,Transition of crystal form,[4],underwent transition to a Form B45 after 4 hours
same,Solubility,"[3]; 25° C., hydrobromide",37.2 mg/mL
same,Solubility,"[3]; 35° C., hydrobromide",45.5 mg/mL
same,Solubility,"[3]; 50° C., hydrobromide",53.8 mg/mL
"Br.NC(=O)c1cnc2[nH]ccc2c1N[C@@H]1[C@@H]2C[C@@H]3C[C@H]1C[C@@](O)(C3)C2 [Form A87, 4-{[(1R,2s,3S,5s,7s)-5-hydroxy-2-adamantyl]amino}-1H-pyrrolo[2,3-b]pyridine-5-carboxamide hydrobromide]",LC: total amount of the related substances,[1]; [5],1.51%
same,LC: total amount of the related substances,[1]; [6],1.64%
same,LC: total amount of the related substances,[1]; [7],1.60%
same,LC: total amount of the related substances,[1]; [8],1.32%
same,Physical stability / change in the crystal forms,[1],physically stable
same,Solubility,"[3]; 25° C., hydrobromide",36.8 mg/mL
same,Solubility,"[3]; 35° C., hydrobromide",46.0 mg/mL
same,Solubility,"[3]; 50° C., hydrobromide",48.9 mg/mL
"Br.NC(=O)c1cnc2[nH]ccc2c1N[C@@H]1[C@@H]2C[C@@H]3C[C@H]1C[C@@](O)(C3)C2 [hydrobromide, 4-{[(1R,2s,3S,5s,7s)-5-hydroxy-2-adamantyl]amino}-1H-pyrrolo[2,3-b]pyridine-5-carboxamide hydrobromide]",Storage stability in a solid state,[1],excellent storage stability in a solid state
